Reference: publication PMC12197678, “Cvill6 and Cvill7: Potent and Selective Peptide Blockers of Kv1.2 Ion Channel Isolated from Mexican Scorpion Centruroides villegasi” (Toxins, 2025)

Experiments:
Kv1.2 = details: ref [21],[22]; cited from earlier work
From the text: The Kv1.2 ion channel, a member of voltage-gated potassium channels, is encoded by the KCNA2 gene. Kv1.2 is predominantly expressed in the central nervous system (CNS) abundantly in the cerebellum, hippocampus, and cortex. It plays a crucial role in action potential propagation, neuronal excitability, and synaptic transmission. Gain-of-function (GOF) mutations in KCNA2 cause increased Kv1.2 activity, resulting in excessive potassium conductance leading to neuronal hyperpolarization, and impairing normal brain function. A decade ago, Kv1.2 emerged as a key factor ...

hKv1.3 = target: T1, hKv1.3 (Homo sapiens, UniProt P22001); test: cell-based; assay type: cell-based
T1 construct: peripheral blood mononuclear cells (PBMCs) were isolated from the healthy donor’s blood; endogenous in cells
From the text: Therefore, we aimed to investigate the effects of Cvill6 and Cvill7 on voltage-gated K^+ ion channels. Among the tested ion channels there were four members from the Shaker-related human Kv1 family, hKv1.1, hKv1.2, hKv1.3, and hKv1.5 (Figure 3A–E), and one member of the human ether-a-go-go-related (hERG) cardiac K^+ channel hKv11.1 (hERG1, Figure 3F). For current recordings, Kv1.1, Kv1.2, and Kv1.5 were transiently expressed in CHO cells while for Kv11.1 a stable HEK293 cell line was used. To record Kv1.3 currents human peripheral T lymphocytes were activated with Phytohemagglutinin A (PHA) to boost Kv1.3 expression and Ca^2+-free intracellular solution to prevent the KCa3.1 channel opening. […] Appropriate voltage protocols were applied to record the K^+ currents from voltage-clamped cells in whole-cell configurations. Toxins were freshly dissolved in the bath solution supplemented with 0.1 mg/mL BSA and applied to the patched cells via a gravity-fed micro-perfusion system with an approximate flow rate of 200 µL/min.
To avoid toxin adsorption onto the plastic surfaces of the perfusion system, 0.1 mg/mL of bovine serum albumin (BSA, Sigma-Aldrich, Budapest, Hungary) was also added into all bath solutions prior to the patch-clamp assay.
Whole-cell currents were recorded using the patch-clamp technique in voltage-clamp mode, following standard protocols. […] Micropipettes were made from GC150F-7.5 borosilicate capillaries (Harvard Apparatus Co., Holliston, MA, USA) using a Sutter P2000 laser puller with tip resistance generally ranging from 3–6 MΩ in the bath solution. Only recordings with a leak current at the holding potential (Vh) of <10% of the peak current at the test potential were included in the data analysis. All recordings were performed at room temperature (20–25 °C). Control and test solutions were perfused to the cells via a gravity-driven micro-perfusion system and AutoMate Perfusion Pencil Multi-Barrel Manifold Tip (AutoMate Scientific, Berkeley, CA, USA), with an approximate flow rate of 200 µL/min, and the excess amount of bath solution was continuously removed from the recording chamber using vacuum suction.
The duration of depolarization pulses was 15 ms for Kv1.3 and 50 ms for Kv1.1 and Kv1.5. However, for Kv1.2, 15–500 ms-long pulses were used to achieve the saturated peak current due to the variable activation kinetics of this channel. […] KCa2.2 and KCa3.1 currents were recorded by applying 150 ms-long voltage ramps to +50 mV from −120 mV every 10 s; the Vh was set to −85 mV.
Before analysis, all current traces were digitally filtered using three-point boxcar smoothing and were corrected for ohmic leakage, only if required. […] Data points in the concentration–response curve represent the mean RCF values of three to six individual cells, with error bars denoting the standard error of the mean (SEM). The data points for each concentration were fitted using the Hill equation: RCF = IC50^H/(IC50^H + [toxin]^H), where IC50 is the dissociation constant, H represents the Hill coefficient, and [toxin] is the concentration of the toxin.
To study the binding kinetics of Cvill toxins, the peak current during the application of toxin at time point t (It) was normalized to the peak current (I0) before the toxin exposure (Inorm = It/I0) and plotted as a function of time.

hKv1.5 = assay type: cell-based, human
Method: Chinese hamster ovary (CHO) cells (generously provided by Yosef Yarden, Weizmann Institute of Science, Rehovot, Israel) or human embryonic kidney (HEK293) cells were cultured and maintained in Dulbecco’s modified Eagle medium (DMEM, Thermo Fisher Scientific, Waltham, MA, USA) supplemented with 2 mM L-glutamine, 10% fetal bovine serum (FBS), 100 µg/mL streptomycin, and 100 U/mL penicillin-g (Sigma-Aldrich, Budapest, Hungary) following standard culturing conditions [52]. For transient expression of ion channels, CHO cells were transfected using the Lipofectamine 2000 kit (Invitrogen, Waltham, MA, USA) following the manufacturer’s instructions with plasmids encoding specific ion channels, including hKv1.1 (KCNA1 gene), hKv1.2 (KCNA2 gene), and hKv1.5 (KCNA5 gene) in a pCMV6-AC-GFP vector (OriGene Technologies), hKCa2.2 (KCNN2 gene) in a pCDN3 plasmid (for this transfection a GFP containing plasmid was co-transfected, courtesy of Bernard Attali, Tel Aviv University, Tel Aviv, Israel), and hKCa3.1 (KCNN4 gene) in a pEGFP-C1 vector (a kind gift by H. Wulff, University of California, Davis, CA, USA). […] Electrophysiological recordings were typically conducted 24 to 48 h after transfection. […]
Whole-cell currents were recorded using the patch-clamp technique in voltage-clamp mode, following standard protocols [73]. […]

hKv1.1 = target: T2, hKv1.1 (Homo sapiens, UniProt Q09470); test: cell-based; assay type: cell-based
T2 construct: host or cells: CHO cells, transient transfection (Lipofectamine 2000)
Method: (§1) Chinese hamster ovary (CHO) cells (generously provided by Yosef Yarden, Weizmann Institute of Science, Rehovot, Israel) or human embryonic kidney (HEK293) cells were cultured and maintained in Dulbecco’s modified Eagle medium (DMEM, Thermo Fisher Scientific, Waltham, MA, USA) supplemented with 2 mM L-glutamine, 10% fetal bovine serum (FBS), 100 µg/mL streptomycin, and 100 U/mL penicillin-g (Sigma-Aldrich, Budapest, Hungary) following standard culturing conditions [52]. For transient expression of ion channels, CHO cells were transfected using the Lipofectamine 2000 kit (Invitrogen, Waltham, MA, USA) following the manufacturer’s instructions with plasmids encoding specific ion channels, including hKv1.1 (KCNA1 gene), hKv1.2 (KCNA2 gene), and hKv1.5 (KCNA5 gene) in a pCMV6-AC-GFP vector (OriGene Technologies), hKCa2.2 (KCNN2 gene) in a pCDN3 plasmid (for this transfection a GFP containing plasmid was co-transfected, courtesy of Bernard Attali, Tel Aviv University, Tel Aviv, Israel), and hKCa3.1 (KCNN4 gene) in a pEGFP-C1 vector (a kind gift by H. Wulff, University of California, Davis, CA, USA). […] Electrophysiological recordings were typically conducted 24 to 48 h after transfection.
(§2) Whole-cell currents were recorded using the patch-clamp technique in voltage-clamp mode, following standard protocols [73]. […] Micropipettes were made from GC150F-7.5 borosilicate capillaries (Harvard Apparatus Co., Holliston, MA, USA) using a Sutter P2000 laser puller with tip resistance generally ranging from 3–6 MΩ in the bath solution. Only recordings with a leak current at the holding potential (Vh) of <10% of the peak current at the test potential were included in the data analysis. All recordings were performed at room temperature (20–25 °C). Control and test solutions were perfused to the cells via a gravity-driven micro-perfusion system and AutoMate Perfusion Pencil Multi-Barrel Manifold Tip (AutoMate Scientific, Berkeley, CA, USA), with an approximate flow rate of 200 µL/min, and the excess amount of bath solution was continuously removed from the recording chamber using vacuum suction.
(§3) The duration of depolarization pulses was 15 ms for Kv1.3 and 50 ms for Kv1.1 and Kv1.5. However, for Kv1.2, 15–500 ms-long pulses were used to achieve the saturated peak current due to the variable activation kinetics of this channel [74].

hKv1.2 = target: T3, hKv1.2 (Homo sapiens, UniProt P16389); test: Whole-cell patch-clamp, hKv1.2 current in transiently transfected CHO cells; assay type: cell-based; details: positive control
T3 construct: host or cells: CHO cells, transient transfection (Lipofectamine 2000)
T3 sequence (P16389 whole entry): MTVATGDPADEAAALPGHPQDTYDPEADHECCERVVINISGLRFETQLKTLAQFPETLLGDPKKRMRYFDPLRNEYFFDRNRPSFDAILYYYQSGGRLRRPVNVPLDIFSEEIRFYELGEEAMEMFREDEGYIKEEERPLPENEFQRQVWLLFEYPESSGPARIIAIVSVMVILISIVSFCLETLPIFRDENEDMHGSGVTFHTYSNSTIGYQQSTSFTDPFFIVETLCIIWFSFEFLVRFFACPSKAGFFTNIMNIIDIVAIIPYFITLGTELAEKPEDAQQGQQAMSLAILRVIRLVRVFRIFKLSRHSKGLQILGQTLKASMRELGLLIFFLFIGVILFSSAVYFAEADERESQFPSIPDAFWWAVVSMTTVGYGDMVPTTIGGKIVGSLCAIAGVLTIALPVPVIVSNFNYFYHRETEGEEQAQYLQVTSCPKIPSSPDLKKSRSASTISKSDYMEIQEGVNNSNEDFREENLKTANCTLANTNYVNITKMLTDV
Method: as §1, §2, §3

T2 sequence (Q09470 whole entry): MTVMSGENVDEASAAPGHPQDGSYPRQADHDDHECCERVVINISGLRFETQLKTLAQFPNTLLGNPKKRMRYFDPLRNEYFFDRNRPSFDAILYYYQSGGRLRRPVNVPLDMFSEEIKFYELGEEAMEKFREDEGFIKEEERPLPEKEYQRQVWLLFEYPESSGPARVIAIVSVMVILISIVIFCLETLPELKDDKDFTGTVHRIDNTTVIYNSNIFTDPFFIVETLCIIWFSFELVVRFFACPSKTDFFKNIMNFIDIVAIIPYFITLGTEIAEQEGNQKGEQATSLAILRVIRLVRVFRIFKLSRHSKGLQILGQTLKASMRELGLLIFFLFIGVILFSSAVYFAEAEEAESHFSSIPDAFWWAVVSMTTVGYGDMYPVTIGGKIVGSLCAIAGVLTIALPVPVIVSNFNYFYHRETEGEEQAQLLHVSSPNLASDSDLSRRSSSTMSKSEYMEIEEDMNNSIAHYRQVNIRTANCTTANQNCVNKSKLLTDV
T1 sequence (P22001 whole entry): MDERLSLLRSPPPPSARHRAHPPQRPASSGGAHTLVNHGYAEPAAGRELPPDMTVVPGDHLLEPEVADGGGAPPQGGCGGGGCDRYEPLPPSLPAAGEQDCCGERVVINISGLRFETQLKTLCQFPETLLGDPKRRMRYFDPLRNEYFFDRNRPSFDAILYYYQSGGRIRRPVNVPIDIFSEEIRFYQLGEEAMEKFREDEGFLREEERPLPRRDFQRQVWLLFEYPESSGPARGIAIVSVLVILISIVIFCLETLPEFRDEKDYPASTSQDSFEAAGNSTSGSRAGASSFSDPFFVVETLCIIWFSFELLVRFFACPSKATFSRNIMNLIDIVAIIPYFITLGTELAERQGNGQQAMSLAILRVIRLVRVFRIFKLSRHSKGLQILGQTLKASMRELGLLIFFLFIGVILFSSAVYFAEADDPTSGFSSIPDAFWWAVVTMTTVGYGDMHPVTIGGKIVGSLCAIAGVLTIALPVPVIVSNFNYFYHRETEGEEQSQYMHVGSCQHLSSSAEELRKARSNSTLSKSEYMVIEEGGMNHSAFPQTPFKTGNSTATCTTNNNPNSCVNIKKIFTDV

## Nc1ccncc1 [4-aminopyridine]
Kv1.2
  effect on gain-of-function defects in patients with KCNA2-related encephalopathy: can mitigate the gain-of-function defects in patients

## CC[N+](CC)(CC)CC [TEA^+, tetraethylammonium chloride, reference compound]
hKv1.3
  inhibition of Kv1.3 by positive control: fully reversible inhibitors
hKv1.5
  inhibition of Kv1.5 by positive control: fully reversible inhibitors
hKv1.1
  inhibition of Kv1.1 by positive control: fully reversible inhibitors

## charybdotoxin [reference compound]
hKv1.2
  inhibition of Kv1.2 by positive control: fully reversible inhibitors
